The source of these data is patent publication US12649733B2, “3,6-diamino-pyridazin-3-yl derivatives, pharmaceutical compositions containing them and their uses as pro-apoptotic agents” (LES LABORATOIRES SERVIER, priority 2019, dated 2026).

Structures are written as SMILES.

Broadly, the IC50 is the concentration that gives 50% inhibition. The term Ki denotes the equilibrium dissociation constant of an inhibitor or competing ligand from its target.

One assay deals with BCLXL (Homo sapiens, UniProt Q07817, V10N/V9A). Briefly: AlphaLISA assay (BIM peptide displacement). The class given is binding. To be noted: 20 pM protein, 1 nM peptide. As to the method: AlphaLISA assay measures an increase in alpha signal upon binding biotinylated GST(1-218)-(FACTOR_XA)-hs ? (2-209)(SEQ ID:02—GST UniProtKB® primary accession number P08515 and BCLXL UniProtKB® primary accession number Q07817-1) coupled to a Streptavidin labeled Alpha donor bead to N-terminally labeled peptide derived from BIM (Fluorescein-betaAla-Ahx-SEQID:05, wherein SEQ ID:05 is […]) coupled to an Anti-FTIC AlphaLISA acceptor bead.
Chain of BCLXL (Q07817 with tags, fused parts or gaps V9A/V10N): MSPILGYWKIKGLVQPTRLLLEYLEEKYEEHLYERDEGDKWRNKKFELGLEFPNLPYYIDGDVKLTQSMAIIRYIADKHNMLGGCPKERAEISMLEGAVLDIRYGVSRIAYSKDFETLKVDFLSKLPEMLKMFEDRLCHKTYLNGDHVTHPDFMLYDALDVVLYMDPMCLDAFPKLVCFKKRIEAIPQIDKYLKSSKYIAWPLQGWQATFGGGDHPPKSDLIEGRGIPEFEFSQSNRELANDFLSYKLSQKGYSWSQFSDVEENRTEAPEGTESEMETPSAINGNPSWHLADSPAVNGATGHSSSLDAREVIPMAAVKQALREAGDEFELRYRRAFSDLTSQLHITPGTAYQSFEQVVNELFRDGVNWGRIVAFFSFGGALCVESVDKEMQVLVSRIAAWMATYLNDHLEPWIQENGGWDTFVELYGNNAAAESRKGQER
GST(1-218)(FACTOR_XA)-hs ? (2-209) was biotinylated in 50 mM phosphate buffer using a 20 fold excess of EZ Link NHS-LC-Biotin (thermoFisher catalogue number 21336) overnight at 4° C.
The addition of a compound which binds competitively to the same site as the peptide will result in an decrease in the Alpha signal of the available donor bead-protein-peptide-acceptor bead complex due to displacement of the peptide.
An 11-point serial dilution of each compound was prepared in DMSO, the final buffer conditions were 10 mM 4-(2-hydroxyethyl)-1-piperazineethanesulfonic acid [HEPES], 150 mM NaCl, 0.05% Tween 20, pH 7.4 and 4% DMSO. The final protein concentration in the assay was 20 pM with the peptide present at 1 nM). Alpha beads were used at a final concentration of 5 ug/mL. The experiments were incubated for overnight at 23° C. after acceptor bead addition. Finally the donor bead is added and incubated for 2 hours at 23° C. before Alpha signal measured on a Biotek Synergy2 plate reader (Excitation 680 nm, emission 615 nm).
In general terms: In Alpha technology, singlet oxygen from a donor bead excites a nearby acceptor bead.

The test system of the next assay is H146 cells. Briefly: H146 cell viability, MTT assay. The class given is cell-based. As to conditions: Homo sapiens, NCI-H146, 48 h, 48 h exposure. In short, it runs like this: (§1)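 Viability read by MTT reduction (OD 540 nm after overnight SDS/HCl lysis) after 48 h compound treatment of cells in RPMI 1640/10% FBS. Triplicates at nine concentrations, 3.16-fold apart; four-parameter curve fitting yields IC50.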

A further assay has as its target T1, Bcl-xL protein (Homo sapiens, UniProt Q07817, N197C).
T1 construct: (2-197)[N197C]; His-His (two His8 stretches joined by a Gly/Ala/Ser/Thr linker)
Briefly: Fluorescence quenching assay (PUMA peptide displacement). In kind it is binding. To be noted: 1 nM protein, 400 nM peptide, 2 hours at 23° C.; KI determined from IC50. In short, it runs like this: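 Compounds were tested as an 11-point series in pH 7.4 HEPES/NaCl/Tween buffer with 5% DMSO, 2 h at 23 °C. Cy5-tagged Bcl-xL(2-197, N197C) at 1 nM and quencher-tagged PUMA peptide at 400 nM were used. Competitive binders restore fluorescence (620/680 nm), and IC50 values were converted to KI.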

The test system of the next assay is MOLT-4 cells. Kind of assay: MOLT-4 cell viability, MTT assay. To be noted: Homo sapiens, MOLT-4, 48 h, 48 h exposure. The class given is cell-based. In short, it runs like this:
as §1

T1 sequence (Q07817 2-197 N197C): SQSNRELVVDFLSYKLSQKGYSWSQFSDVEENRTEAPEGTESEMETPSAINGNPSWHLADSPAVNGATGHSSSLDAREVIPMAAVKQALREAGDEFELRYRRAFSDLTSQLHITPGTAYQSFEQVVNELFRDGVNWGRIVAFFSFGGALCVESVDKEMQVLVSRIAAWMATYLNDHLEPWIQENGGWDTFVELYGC

Take `Cc1cc(N(CCCCO)c2nc(C(=O)O)cs2)nnc1Nc1nc2ccccc2s1` [Example 110, 2-[[6-(1,3-Benzothiazol-2-ylamino)-5-methyl-pyridazin-3-yl]-(4-hydroxybutyl)amino]thiazole-4-carboxylic acid]: the IC50 at BCLXL worked out at 0.48 nM.

Regarding `COC(CO)CN(c1cc(C)c(Nc2nc3ccccc3s2)nn1)c1nc(C(=O)O)cs1` (stereo not drawn) [Example 111, 2-[[6-(1,3-Benzothiazol-2-ylamino)-5-methyl-pyridazin-3-yl]-(3-hydroxy-2-methoxy-propyl)amino]thiazole-4-carboxylic acid], the half-inhibitory concentration (IC50) at BCLXL worked out at 27 nM.

Consider `COc1ccc(CN(C)CC#Cc2ccc(OCCCc3sc(N(CCC(O)CO)c4cc(C)c(Nc5nc6ccccc6s5)nn4)nc3C(=O)O)c(F)c2)cc1` (stereo not drawn) [Example 121, 2-[[6-(1,3-Benzothiazol-2-ylamino)-5-methyl-pyridazin-3-yl]-(3,4-dihydroxybutyl)amino]-5-[3-[2-fluoro-4-[3-[(4-methoxyphenyl)methyl-methyl-amino]prop-1-ynyl]phenoxy]propyl]thiazole-4-carboxylic acid], for which, at BCLXL, the 50% inhibitory concentration (IC50) turned out to be 0.058 nM.

Regarding `Cc1cc(N(CCCCCO)c2nc(C(=O)O)cs2)nnc1Nc1nc2ccccc2s1` [Example 125, 2-[[6-(1,3-Benzothiazol-2-ylamino)-5-methyl-pyridazin-3-yl]-(5-hydroxypentyl)amino]thiazole-4-carboxylic acid], the IC50 at BCLXL is 8.6 nM.

For `Cc1cc(N(CCCO)c2nc(C(=O)O)c(CCCOc3ccc(C#CCN(C)C)cc3F)s2)nnc1Nc1nc2ccccc2s1` [Example 126, 2-[[6-(1,3-Benzothiazol-2-ylamino)-5-methyl-pyridazin-3-yl]-(3-hydroxypropyl)amino]-5-[3-[4-[3-(dimethylamino)prop-1-ynyl]-2-fluoro-phenoxy]propyl]thiazole-4-carboxylic acid], the half-maximal inhibitory concentration (IC50) on BCLXL was 0.023 nM.

On to `Cc1cc(N(CCCC(O)CN2CCOCC2)c2nc(C(=O)O)cs2)nnc1Nc1nc2ccccc2s1` (stereo not drawn) [Example 131, 2-[[6-(1,3-Benzothiazol-2-ylamino)-5-methyl-pyridazin-3-yl]-(4-hydroxy-5-morpholino-pentyl)amino]thiazole-4-carboxylic acid], for which, on BCLXL, the half-maximal inhibitory concentration (IC50) is 2.7 nM.

Take `COCC(O)CCCN(c1cc(C)c(Nc2nc3ccccc3s2)nn1)c1nc(C(=O)O)cs1` (stereo not drawn) [Example 132, 2-[[6-(1,3-Benzothiazol-2-ylamino)-5-methyl-pyridazin-3-yl]-(4-hydroxy-5-methoxy-pentyl)amino]thiazole-4-carboxylic acid]: the IC50 at BCLXL was 7.7 nM.

Take `COC(CO)CCCN(c1cc(C)c(Nc2nc3ccccc3s2)nn1)c1nc(C(=O)O)cs1` (stereo not drawn) [Example 133, 2-[[6-(1,3-Benzothiazol-2-ylamino)-5-methyl-pyridazin-3-yl]-(5hydroxy-4-methoxy-pentyl)amino]thiazole-4-carboxylic acid]: the concentration for half-maximal inhibition (IC50) on BCLXL turned out to be 8.9 nM.

As for `Cc1cc(N(C)c2nc(C(=O)O)c(C3CN(C(=O)c4ccccc4)C3)s2)nnc1Nc1nc2ccccc2s1` [Example 136, 5-(1-Benzoylazetidin-3-yl)-2-({6-[(1,3-benzothiazol-2-yl)amino]-5-methylpyridazin-3-yl}(methyl)amino]-1,3-thiazole-4-carboxylic acid], the half-inhibitory concentration (IC50) on BCLXL is 7.7 nM.

For the compound `Cc1cc(N(C)c2nc(C(=O)O)c(CCCOc3ccc(C#CCNCCN(C)C)cc3F)s2)nnc1Nc1nc2ccccc2s1` [Example 223, 2-[[6-(1,3-Benzothiazol-2-ylamino)-5-methyl-pyridazin-3-yl]-methyl-amino]-5-[3-[4-[3-[2-(dimethylamino)ethylamino]prop-1-ynyl]-2-fluoro-phenoxy]propyl]thiazole-4-carboxylic acid], the 50% inhibitory concentration (IC50) in the assay on H146 cells is 7.46 nM; in the assay on MOLT-4 cells, 3.13 nM. On Bcl-xL protein, the Ki came to 0.0018 nM.

For the compound `CNCC#Cc1ccc(OCCCc2sc(N(CCCCCC[N+](C)(C)C)c3cc(C)c(Nc4nc5ccccc5s4)nn3)nc2C(=O)[O-])c(F)c1` [Example 224, 2-[[6-(1,3-Benzothiazol-2-ylamino)-5-methyl-pyridazin-3-yl]-[6-(trimethylammonio)hexyl]amino]-5-[3-[2-fluoro-4-[3-(methylamino)prop-1-ynyl]phenoxy]propyl]thiazole-4-carboxylate], the IC50 was determined as 1160 nM in the assay on H146 cells and 2180 nM with MOLT-4 cells. Also, the Ki on Bcl-xL protein worked out at 0.002 nM.

Consider `Cc1cc(N(CCCCC[N+](C)(C)CCCO)c2nc(C(=O)[O-])c(CCCOc3ccc(C#CCN(C)C)cc3F)s2)nnc1Nc1nc2ccccc2s1` [Example 225, 2-[[6-(1,3-Benzothiazol-2-ylamino)-5-methyl-pyridazin-3-yl]-[5-[3-hydroxypropyl(dimethyl)ammonio]pentyl]amino]-5-[3-[4-[3-(dimethylamino)prop-1-ynyl]-2-fluoro-phenoxy]propyl]thiazole-4-carboxylate], for which the concentration for half-maximal inhibition (IC50) amounted to 351 nM in the assay with H146 cells and 1080 nM in the assay with MOLT-4 cells. Further, the Ki at Bcl-xL protein was 0.0035 nM.

With `CNCC#Cc1ccc(OCCCc2sc(N(CCCCC[N+](C)(C)CCO)c3cc(C)c(Nc4nc5ccccc5s4)nn3)nc2C(=O)[O-])c(F)c1` [Example 229, 2-[[6-(1,3-Benzothiazol-2-ylamino)-5-methyl-pyridazin-3-yl]-[5-[2-hydroxyethyl(dimethyl)ammonio]pentyl]amino]-5-[3-[2-fluoro-4-[3-(methylamino)prop-1-ynyl]phenoxy]propyl]thiazole-4-carboxylate], the figures for the concentration for half-maximal inhibition (IC50) in the assay on H146 cells and in the assay on MOLT-4 cells were 437 nM and 1640 nM, respectively. For the same compound, on Bcl-xL protein, the Ki stood at 0.0014 nM.

`CNCC#Cc1ccc(OCCCc2sc(N(CCCCC[N+](C)(C)CCCO)c3cc(C)c(Nc4nc5ccccc5s4)nn3)nc2C(=O)[O-])c(F)c1` [Example 230, 2-[[6-(1,3-Benzothiazol-2-ylamino)-5-methyl-pyridazin-3-yl]-[5-[3-hydroxypropyl(dimethyl)ammonio]pentyl]amino]-5-[3-[2-fluoro-4-[3-(methylamino)prop-1-ynyl]phenoxy]propyl]thiazole-4-carboxylate]: the 50% inhibitory concentration (IC50) was 1380 nM in the assay on H146 cells and 2180 nM in the assay on MOLT-4 cells. Further, on Bcl-xL protein, the inhibition constant (Ki) came to 0.0014 nM.

With `CNCC#Cc1ccc(OCCCc2sc(N(CCCCC[N+](C)(C)CC(=O)O)c3cc(C)c(Nc4nc5ccccc5s4)nn3)nc2C(=O)[O-])c(F)c1` [Example 231, 2-[[6-(1,3-Benzothiazol-2-ylamino)-5-methyl-pyridazin-3-yl]-[5-[carboxymethyl(dimethyl)ammonio]pentyl]amino]-5-[3-[2-fluoro-4-[3-(methylamino)prop-1-ynyl]phenoxy]propyl]thiazole-4-carboxylate], the IC50 in the assay with H146 cells was 1610 nM; in the assay with MOLT-4 cells, 1190 nM. In addition, the inhibition constant Ki on Bcl-xL protein turned out to be 0.0013 nM.

For `Cc1cc(N(C)c2nc(C(=O)O)c(CCCOc3ccc(C#CCN(C)C)cc3)s2)nnc1Nc1nc2ccccc2s1` [Example 233, 2-[[6-(1,3-Benzothiazol-2-ylamino)-5-methyl-pyridazin-3-yl]-methyl-amino]-5-[3-[4-[3-(dimethylamino)prop-1-ynyl]phenoxy]propyl]thiazole-4-carboxylic acid], the figures for the IC50 in the assay with H146 cells and in the assay on MOLT-4 cells were 2.55 nM and 0.879 nM, respectively. For the same compound, the Ki at Bcl-xL protein amounted to 0.0043 nM.

For the compound `Cc1cc(N(C)c2nc(C(=O)O)c(CCCOc3ccc(C45CC(CN(C)C)(C4)C5)cc3)s2)nnc1Nc1nc2ccccc2s1` [Example 234, 2-[[6-(1,3-Benzothiazol-2-ylamino)-5-methyl-pyridazin-3-yl]-methyl-amino]-5-[3-[4-[1-[(dimethylamino)methyl]-3-bicyclo[1.1.1]pentanyl]phenoxy]propyl]thiazole-4-carboxylic acid], the IC50 in the assay on H146 cells was determined as 15 nM; with MOLT-4 cells it was 3.8 nM. Also, the Ki at Bcl-xL protein worked out at 0.0016 nM.

As for `CNCC#Cc1ccc(OCCCc2sc(N(CCC[N+](C)(C)CCCS(=O)(=O)[O-])c3cc(C)c(Nc4nc5ccccc5s4)nn3)nc2C(=O)O)c(F)c1` [Example 235, 3-[3-[[6-(1,3-Benzothiazol-2-ylamino)-5-methyl-pyridazin-3-yl]-[4-carboxy-5-[3-[2-fluoro-4-[3-(methylamino)prop-1-ynyl]phenoxy]propyl]thiazol-2-yl]amino]propyl-dimethyl-ammonio]propane-1-sulfonate], the concentration for half-maximal inhibition (IC50) with H146 cells and in the assay on MOLT-4 cells was 413 nM throughout. Also, on Bcl-xL protein, the Ki was 0.0011 nM.
